Source: paper PMC2898634 (Chemical Communications (Cambridge, England), 2009)

Assays:
[1] = biological target: IP3R1 with R504 mutated to glutamine (Rattus norvegicus, UniProt P29994, R504Q); experiment: Ca2+ release in cell line expressing only IP3R1 with R504 mutated to glutamine; assay type: cell-based
IP3R = conditions: cited from earlier work

IP3R1 with R504 mutated to glutamine, sequence (P29994 whole entry R504Q): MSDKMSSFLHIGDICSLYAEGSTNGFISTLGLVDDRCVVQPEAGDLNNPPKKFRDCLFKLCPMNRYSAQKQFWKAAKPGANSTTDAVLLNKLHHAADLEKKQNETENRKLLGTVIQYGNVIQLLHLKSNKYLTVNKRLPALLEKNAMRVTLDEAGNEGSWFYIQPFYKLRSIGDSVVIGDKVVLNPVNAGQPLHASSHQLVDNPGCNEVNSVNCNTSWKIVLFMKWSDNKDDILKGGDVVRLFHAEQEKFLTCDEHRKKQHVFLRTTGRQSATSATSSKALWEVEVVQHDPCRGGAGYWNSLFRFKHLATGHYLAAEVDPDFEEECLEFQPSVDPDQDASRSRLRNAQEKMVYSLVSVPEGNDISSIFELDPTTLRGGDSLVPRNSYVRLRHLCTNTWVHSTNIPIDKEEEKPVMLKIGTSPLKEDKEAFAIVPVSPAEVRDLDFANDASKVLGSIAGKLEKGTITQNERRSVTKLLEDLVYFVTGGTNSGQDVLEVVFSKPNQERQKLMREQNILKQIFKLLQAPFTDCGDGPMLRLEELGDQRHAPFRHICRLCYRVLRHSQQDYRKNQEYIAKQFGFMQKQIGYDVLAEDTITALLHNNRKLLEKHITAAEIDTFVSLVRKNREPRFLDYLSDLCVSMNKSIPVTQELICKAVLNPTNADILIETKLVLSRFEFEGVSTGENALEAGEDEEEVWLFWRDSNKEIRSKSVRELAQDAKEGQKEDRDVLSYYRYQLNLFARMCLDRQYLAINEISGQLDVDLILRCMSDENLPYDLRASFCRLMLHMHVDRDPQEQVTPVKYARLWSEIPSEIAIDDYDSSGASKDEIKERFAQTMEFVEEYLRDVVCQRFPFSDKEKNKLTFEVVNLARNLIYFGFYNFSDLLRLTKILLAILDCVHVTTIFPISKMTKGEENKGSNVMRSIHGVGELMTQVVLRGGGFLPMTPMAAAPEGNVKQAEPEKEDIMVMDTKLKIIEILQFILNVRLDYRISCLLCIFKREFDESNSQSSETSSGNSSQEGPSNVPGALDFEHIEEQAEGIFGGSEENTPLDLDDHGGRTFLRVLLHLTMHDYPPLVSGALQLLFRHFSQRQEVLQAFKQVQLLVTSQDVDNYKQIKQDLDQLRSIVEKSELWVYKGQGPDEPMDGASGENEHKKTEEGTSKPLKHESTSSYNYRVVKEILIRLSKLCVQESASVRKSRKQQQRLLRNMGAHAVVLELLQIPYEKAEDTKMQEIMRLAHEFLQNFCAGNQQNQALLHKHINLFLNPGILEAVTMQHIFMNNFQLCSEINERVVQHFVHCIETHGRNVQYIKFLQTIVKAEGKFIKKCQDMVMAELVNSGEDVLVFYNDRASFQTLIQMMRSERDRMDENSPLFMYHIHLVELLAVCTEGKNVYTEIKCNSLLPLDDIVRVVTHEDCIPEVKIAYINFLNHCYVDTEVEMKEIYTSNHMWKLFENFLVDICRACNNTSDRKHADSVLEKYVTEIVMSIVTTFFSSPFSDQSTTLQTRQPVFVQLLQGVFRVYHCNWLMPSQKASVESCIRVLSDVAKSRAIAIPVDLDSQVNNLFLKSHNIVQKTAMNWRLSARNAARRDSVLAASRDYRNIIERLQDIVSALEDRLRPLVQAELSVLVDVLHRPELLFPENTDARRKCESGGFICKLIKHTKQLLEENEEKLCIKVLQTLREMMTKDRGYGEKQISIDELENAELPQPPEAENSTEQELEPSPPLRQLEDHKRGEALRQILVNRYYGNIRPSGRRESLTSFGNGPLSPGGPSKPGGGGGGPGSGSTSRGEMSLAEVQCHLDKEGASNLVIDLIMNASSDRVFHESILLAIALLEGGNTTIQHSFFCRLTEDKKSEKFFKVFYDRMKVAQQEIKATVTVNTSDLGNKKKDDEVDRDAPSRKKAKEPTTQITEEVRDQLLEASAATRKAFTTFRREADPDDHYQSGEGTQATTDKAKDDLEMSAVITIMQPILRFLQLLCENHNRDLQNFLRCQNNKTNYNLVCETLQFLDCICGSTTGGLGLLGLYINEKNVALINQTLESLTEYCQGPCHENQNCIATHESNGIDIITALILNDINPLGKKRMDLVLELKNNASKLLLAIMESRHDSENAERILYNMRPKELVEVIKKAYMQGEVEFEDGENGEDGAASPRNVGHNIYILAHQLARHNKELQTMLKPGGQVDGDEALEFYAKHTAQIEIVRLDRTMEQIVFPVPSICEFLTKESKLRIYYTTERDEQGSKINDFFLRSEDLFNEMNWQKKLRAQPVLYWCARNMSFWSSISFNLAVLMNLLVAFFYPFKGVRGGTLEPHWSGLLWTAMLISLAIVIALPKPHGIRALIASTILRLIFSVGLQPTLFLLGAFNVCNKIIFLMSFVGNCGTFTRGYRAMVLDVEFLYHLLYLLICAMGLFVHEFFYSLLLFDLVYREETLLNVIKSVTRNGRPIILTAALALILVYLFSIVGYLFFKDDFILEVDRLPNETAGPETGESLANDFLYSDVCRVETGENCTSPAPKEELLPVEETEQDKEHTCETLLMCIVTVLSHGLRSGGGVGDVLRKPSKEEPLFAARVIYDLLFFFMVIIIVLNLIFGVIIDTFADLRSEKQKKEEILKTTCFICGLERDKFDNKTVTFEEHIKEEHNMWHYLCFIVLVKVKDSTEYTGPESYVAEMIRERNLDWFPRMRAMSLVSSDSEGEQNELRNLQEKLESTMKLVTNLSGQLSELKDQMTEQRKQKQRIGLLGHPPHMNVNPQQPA

| Compound | potency relative to IP3 at the mutated receptor [1] | change of EC50 at mutant IP3R relative to IP3R1 ([1]; printed as EC50 reduced) [fold] | potency relative to IP3 (IP3R) | activity at IP3R (result in words) (IP3R) |
| --- | --- | --- | --- | --- |
| Nc1ncnc2c1ncn2[C@@H]1O[C@H](CO)[C@@H](O[C@H]2O[C@H](CO)[C@@H](OP(=O)(O)O)[C@H](OP(=O)(O)O)[C@H]2O)[C@H]1OP(=O)(O)O [AdA, adenophostin A] | only equipotent with IP3 | 434 | at least ten times more potent than IP3 | – |
| O=P(O)(O)O[C@@H]1[C@@H](O)[C@H](OP(=O)(O)O)[C@H](O)[C@H](O)[C@H]1O [Ins(1,5)P2] | – | – | – | inactive |
